The text below walks through data of patent US12404283B2, “c-MYC mRNA translation modulators and uses thereof in the treatment of cancer” (Anima Biotech Inc., priority 2022, dated 2025).

For the assay, the system named is c-Myc. Description: c-Myc immunofluorescence assay. The class given is cell-based, human. The conditions noted are these: A549 cells, 24 hours treatment, anti-c-Myc immunofluorescence. An outline of the steps: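 High-content imaging (20×) of PFA-fixed A549 cells immunostained for c-Myc with DAPI nuclei, after 24 h compound treatment at increasing concentrations. Per-cell c-Myc signal in identified cell regions was plotted against dose and fitted by logistic regression to give EC50.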

`CCN(CC)CCCNC(=O)c1ccc2c(c1)sc1nc(-c3ccc(CN)cc3)nn12` [compound 348, 2-(4-(aminomethyl)phenyl)-N-(3-(diethylamino)propyl)benzo [4,5]thiazolo[3,2-b][1,2,4]triazole-6-carboxamide]: the “Myc Efficacy (−LogEC50)” value was “++ (++ ≥5 and <6)”.
As to `CCNCCCNC(=O)c1ccc2c(c1)sc1nc(-c3ccc(C(=O)NC)cc3F)cn12` [compound 362, N-(3-(ethylamino)propyl)-2-(2-fluoro-4-(methylcarbamoyl)phenyl) benzo[d]limidazo[2,1-b]thiazole-7-carboxamide], the “Myc Efficacy (−LogEC50)” value is “++ (++ ≥5 and <6)”.
The same measure for `CNC(=O)c1ccc(-c2cn3c(n2)sc2cc(C(=O)NC4CCNCC4)ccc23)c(F)c1` [compound 363, 2-(2-fluoro-4-(methylcarbamoyl)phenyl)-N-(piperidin-4-yl)benzo[d]imidazo[2,1-b]thiazole-7-carboxamide]: “++ (++ ≥5 and <6)”.
Consider `CNC(=O)c1ccc(-c2cn3c(n2)sc2cc(NC(=O)C4CCNCC4)ccc23)c(F)c1` [compound 364, N-(2-(2-fluoro-4-(methylcarbamoyl)phenyl)benzo[d]imidazo[2,1-b]thiazol-7-yl)piperidine-4-carboxamide], for which the “Myc Efficacy (−LogEC50)” value was “++ (++ ≥5 and <6)”.
Next, `CCN(CC)CCCC(=O)Nc1ccc2c(c1)sc1nc(-c3ccc(C(=O)NC)cc3F)cn12` [compound 365, 4-(7-(4-(diethylamino)butanamido)benzo[d]imidazo[2,1-b]thiazol-2-yl)-3-fluoro-N-methylbenzamide]: “++ (++ ≥5 and <6)”; `O=C(NCCCN1CCCCC1)c1ccc2c(c1)sc1nc(-c3ccc(CNC4CC4)cc3F)cn12` [compound 368, 2-(4-((cyclopropylamino)methyl)-2-fluorophenyl)-N-(3-(piperidin-1-yl)propyl)benzo[d]imidazo [2,1-b]thiazole-7-carboxamide]: “+++ (+++ ≥6)”.
Next, `NCc1ccc(-c2cn3c(n2)sc2cc(C(=O)NCCCN4CCCCC4)ccc23)c(Cl)c1` [compound 369, 2-(4-(aminomethyl)-2-chlorophenyl)-N-(3-(piperidin-1-yl)propyl)benzo[d]imidazo [2,1-b]thiazole-7-carboxamide]: “+++ (+++ ≥6)”.
The same measure for `NCc1ccc(-c2cn3c(n2)sc2cc(C(=O)NCCCN4CCCCC4)ccc23)c(C2CC2)c1` [compound 370, 2-(4-(aminomethyl)-2-cyclopropylphenyl)-N-(3-(piperidin-1-yl)propyl)benzo[d]imidazo [2,1-b]thiazole-7-carboxamide]: “+++ (+++ ≥6)”; for `NCc1ccc(-c2cn3c(n2)sc2cc(C(=O)NCCCN4CCCCC4)ccc23)c(C(F)F)c1` [compound 371, 2-(4-(aminomethyl)-2-(difluoromethyl)phenyl)-N-(3-(piperidin-1-yl)propyl)benzo[d]imidazo [2,1-b]thiazole-7-carboxamide]: “++ (++ ≥5 and <6)”; for `NCc1ccc(-c2cn3c(n2)sc2cc(C(=O)NCCCN4CCCCC4)ccc23)c(C(F)(F)F)c1` [compound 372, 2-(4-(aminomethyl)-2-(trifluoromethyl)phenyl)-N-(3-(piperidin-1-yl)propyl)benzo[d]imidazo [2,1-b]thiazole-7-carboxamide]: “++ (++ ≥5 and <6)”.
Consider `O=C(NCCCN1CCCCC1)c1ccc2c(c1)sc1nc(-c3ccc(C4CCCN4)cc3)cn12` (centres unmarked) [compound 373, N-(3-(piperidin-1-yl)propyl)-2-(4-(pyrrolidin-2-yl)phenyl)benzo[d]imidazo [2,1-b]thiazole-7-carboxamide], for which the “Myc Efficacy (−LogEC50)” value was “+++ (+++ ≥6)”.
Next, `NCc1ccc(-c2cn3c(n2)sc2cc(C(=O)NCCCN4CCCCC4)ccc23)c(F)c1` [compound 374, 2-(4-(aminomethyl)-2-fluorophenyl)-N-(3-(piperidin-1-yl)propyl)benzo[d]imidazo [2,1-b]thiazole-7-carboxamide]: “+++ (+++ ≥6)”.
Turning to `NCc1ccc(-c2cn3c(n2)sc2cc(C(=O)NCCCN4CCCCC4)ccc23)cc1F` [compound 375, 2-(4-(aminomethyl)-3-fluorophenyl)-N-(3-(piperidin-1-yl)propyl)benzo[d]imidazo [2,1-b]thiazole-7-carboxamide], the “Myc Efficacy (−LogEC50)” value was “+++ (+++ ≥6)”.
Regarding `NCc1ccc(-c2cn3c(n2)sc2cc(C(=O)NCCCN4CCCCC4)ccc23)cc1Cl` [compound 376, 2-(4-(aminomethyl)-3-chlorophenyl)-N-(3-(piperidin-1-yl)propyl)benzo[d]imidazo [2,1-b]thiazole-7-carboxamide], the “Myc Efficacy (−LogEC50)” value is listed as “+++ (+++ ≥6)”.
The same measure for `NCc1ccc(-c2cn3c(n2)sc2cc(C(=O)NCCCN4CCCCC4)ccc23)cc1C(F)(F)F` [compound 378, 2-(4-(aminomethyl)-3-(trifluoromethyl)phenyl)-N-(3-(piperidin-1-yl)propyl)benzo[d]imidazo [2,1-b]thiazole-7-carboxamide]: “+++ (+++ ≥6)”.
Next, `NCc1ccc(-c2cn3c(n2)sc2cc(C(=O)NCCCN4CCCCC4)ccc23)cc1C(F)F` [compound 379, 2-(4-(aminomethyl)-3-(difluoromethyl)phenyl)-N-(3-(piperidin-1-yl)propyl)benzo[d]imidazo [2,1-b]thiazole-7-carboxamide]: “+++ (+++ ≥6)”; `Cc1cc(-c2cn3c(n2)sc2cc(C(=O)NCCCN4CCCCC4)ccc23)ccc1CN` [compound 381, 2-(4-(aminomethyl)-3-methylphenyl)-N-(3-(piperidin-1-yl)propyl)benzo[d]imidazo [2,1-b]thiazole-7-carboxamide]: “+++ (+++ ≥6)”.
Regarding `NCc1c(F)cc(-c2cn3c(n2)sc2cc(C(=O)NCCCN4CCCCC4)ccc23)cc1F` [compound 383, 2-(4-(aminomethyl)-3,5-difluorophenyl)-N-(3-(piperidin-1-yl)propyl)benzo[d]imidazo [2,1-b]thiazole-7-carboxamide], the “Myc Efficacy (−LogEC50)” value is “++ (++ ≥5 and <6)”.
Next, `NCc1c(F)cc(-c2cn3c(n2)sc2cc(C(=O)NCCCN4CCCCC4)ccc23)cc1Cl` [compound 384, 2-(4-(aminomethyl)-3-chloro-5-fluorophenyl)-N-(3-(piperidin-1-yl)propyl)benzo[d]imidazo [2,1-b]thiazole-7-carboxamide]: “++ (++ ≥5 and <6)”; `CNC(=O)c1ccc(-c2nc3sc4cc(C(=O)NCCCN5CCCCC5)ccc4n3n2)c(F)c1` [compound 386, 2-(2-fluoro-4-(methylcarbamoyl)phenyl)-N-(3-(piperidin-1-yl)propyl)benzo[4,5]thiazolo [3,2-b][1,2,4]triazole-6-carboxamide]: “+++ (+++ ≥6)”.
With `NCc1ccc(-c2nc3sc4cc(C(=O)NCCCN5CCCCC5)ccc4n3n2)c(F)c1` [compound 387, 2-(4-(aminomethyl)-2-fluorophenyl)-N-(3-(piperidin-1-yl)propyl)benzo[4,5]thiazolo [3,2-b][1,2,4]triazole-6-carboxamide], the “Myc Efficacy (−LogEC50)” value is “+++ (+++ ≥6)”.
The same measure for `CCN(CC)CCCNC(=O)c1ccc2c(c1)sc1nc(-c3ccc(CN)cc3F)nn12` [compound 388, 2-(4-(aminomethyl)-2-fluorophenyl)-N-(3-(diethylamino)propyl) benzo[4,5]thiazolo[3,2-b][1,2,4]triazole-6-carboxamide]: “++ (++ ≥5 and <6)”; for `CNC(=O)c1ccc(-c2nc3sc4cc(C(=O)NCCCN5CCC(F)CC5)ccc4n3n2)c(F)c1` [compound 389, 2-(2-fluoro-4-(methylcarbamoyl)phenyl)-N-(3-(4-fluoropiperidin-1-yl)propyl)benzo[4,5]thiazolo [3,2-b][1,2,4]triazole-6-carboxamide]: “++ (++ ≥5 and <6)”; for `NCc1ccc(-c2nc3sc4cc(C(=O)NCCCN5CCC(F)CC5)ccc4n3n2)c(F)c1` [compound 390, 2-(4-(aminomethyl)-2-fluorophenyl)-N-(3-(4-fluoropiperidin-1-yl)propyl)benzo[4,5]thiazolo [3,2-b][1,2,4]triazole-6-carboxamide]: “++ (++ ≥5 and <6)”.
The same measure for `NCc1ccc(-c2nc3sc4cc(C(=O)NCCCN5CCCCC5)ccc4n3n2)cc1` [compound 392, 2-(4-(aminomethyl)phenyl)-N-(3-(piperidin-1-yl)propyl)benzo[4,5]thiazolo [3,2-b][1,2,4]triazole-6-carboxamide]: “+++ (+++ ≥6)”.
Next, `O=C(NCCCN1CCCCC1)c1ccc2c(c1)sc1nc(-c3ccc(CNC4CC4)cc3)nn12` [compound 393, 2-(4-((cyclopropylamino)methyl)phenyl)-N-(3-(piperidin-1-yl)propyl)benzo[4,5]thiazolo [3,2-b][1,2,4]triazole-6-carboxamide]: “+++ (+++ ≥6)”; `CCN(CC)CCCNC(=O)c1ccc2c(c1)sc1nc(-c3ccc(CNC4CC4)cc3)nn12` [compound 394, 2-(4-((cyclopropylamino)methyl)phenyl)-N-(3-(diethylamino)propyl)benzo [4,5]thiazolo[3,2-b][1,2,4]triazole-6-carboxamide]: “++ (++ ≥5 and <6)”.
Consider `CCN(CC)CCCNC(=O)c1ccc2c(c1)sc1nc(-c3ccc(CNC4CC4)cc3F)nn12` [compound 395, 2-(4-((cyclopropylamino)methyl)-2-fluorophenyl)-N-(3-(diethylamino)propyl)benzo [4,5]thiazolo[3,2-b][1,2,4]triazole-6-carboxamide], for which the “Myc Efficacy (−LogEC50)” value is “++ (++ ≥5 and <6)”.
The same measure for `O=C(NCCCN1CCCCC1)c1ccc2c(c1)sc1nc(-c3ccc(CNC4CC4)cc3F)nn12` [compound 396, 2-(4-((cyclopropylamino)methyl)-2-fluorophenyl)-N-(3-(piperidin-1-yl)propyl)benzo[4,5]thiazolo [3,2-b][1,2,4]triazole-6-carboxamide]: “++ (++ ≥5 and <6)”.
